Refractive index, mass density and speed of sound data for four compounds are collected here from the NIST ThermoML archive (doi:10.1016/j.jct.2006.07.013).

A short description of data set [1]: refractive index (Na D-line) (dimensionless). The conditions noted are these: 298.15 K, 101.33 kPa, Liquid.
The conditions of data set [2]: 298.15 K, 101.33 kPa, Liquid; for speed of sound: Sing-around technique in a fixed-path interferometer.

Numbers after ± are expanded uncertainties.

Broadly, the refractive index is the speed of light in vacuum divided by its phase velocity in the sample. Usually mass density stands for mass per unit of volume. Broadly, the speed of sound is how fast a sound wave travels through the sample. As for `CCCCOC(C)=O` [butyl ethanoate], the refractive index in data set [1] (Standard Abbe refractometry) was determined as 1.39191 ± 0.00051. Further, in data set [2], the mass density is on record as 876.35 ± 1.9 kg/m3 and the speed of sound amounted to 1193.1 ± 2.1 m/s.

As for `COC(C)=O` [methyl ethanoate], in data set [1] (Standard Abbe refractometry), the refractive index was determined as 1.35893 ± 0.00037. In data set [2], the mass density is 927.36 ± 0.65 kg/m3 and the speed of sound is recorded as 1154 ± 1.2 m/s.

As to `CCCCCCC(=O)OC` [methyl heptanoate], the refractive index in data set [1] (refractometer) amounted to 1.40945 ± 0.00021. The speed of sound in data set [2] came to 1254.6 ± 1.2 m/s. Further, the mass density in data set [2] (Vibrating tube method) is recorded as 875.88 ± 0.23 kg/m3.

For `Cc1ccccc1` [toluene], the refractive index in data set [1] (Standard Abbe refractometry) was determined as 1.4939 ± 0.00031. For the same compound, in data set [2], the mass density turned out to be 862.34 ± 0.18 kg/m3 and the speed of sound amounted to 1306.3 ± 0.7 m/s.
